For one assay, the target named is T1, canine TRPM8 (Canis lupus familiaris, UniProt Q1A7N1).
T1 construct: expressed in transfected cells
The experiment in a line: In Vitro Canine TRPM8 Functional Assay (icilin-induced intracellular Ca2+, FLIPR/FDSS). In kind it is cell-based. Conditions: for % Inh @ 0.2 μM: 0.2 μM compound; for IC50: icilin at approx. 80% maximal response, eight-point concentration-response. The procedure: The functional activity of representative compounds of the formula (I) of the present invention was quantified by measuring changes in intracellular calcium concentration using a Ca^2+-sensitive fluorescent dye. The changes in fluorescent signal were monitored by a fluorescence plate reader, either a FLIPR™ (Molecular Devices) or FDSS (Hamamatsu).
HEK293 cells stably expressing canine TRPM8 were routinely grown as monolayers in Dulbecco's minimum essential medium supplemented with 10% FBS, 2 mM L-glutamine, 100 units/mL penicillin, 100 ug/mL streptomycin and 400 μg/mL G418. Cells were maintained in 5% CO2 at 37° C. At 24 hr prior to assay, cells were seeded in black wall, clear-base poly-D-lysine coated 384-well plates (BD Biosciences, NJ, USA) at a density of 5,000 cells per well in culture medium and grown overnight in 5% CO2 at 37° C. On assay day, growth media was removed, and cells were loaded with Calcium 3 Dye (Molecular Devices) for 35 min at 37° C., under 5% CO2 and then incubated for 25 min at room temperature and atmosphere. Subsequently, cells were tested for agonist-induced increases in intracellular Ca^2+ levels using FLIPR™ or FDSS. Cells were treated with compounds of the formula (I) at varying concentrations and intracellular […] was measured for 5 min prior to the addition of icilin to all wells to achieve a final concentration that produces approximately an 80% maximal response.
Basal FI was subtracted prior to normalizing data to percent of maximal response. Curves were generated using the average of quadruplicate wells for each data point using nonlinear regression of either sigmoidal dose response or sigmoidal dose response (variable slope). Finally, the EC50 and IC50 values were calculated with the best-fit curve determined by GraphPad Prism

Assay [1] deals with icilin-induced "wet-dog" shakes. The experiment in a line: Inhibition of icilin-induced "wet-dog" shakes in rats. In kind it is in vivo. Conditions: male Sprague Dawley rats; 10 mg/kg p.o., 60 min pre-icilin; vehicle 10% Solutol (0.5% HPMC for 47); [1-(test compound WDS count/vehicle WDS count)]x100. The procedure: Male Sprague Dawley rats ([…], Charles River Labs, n=6-9/treatment) were used to evaluate the ability of test compounds to block icilin-induced “wet-dog” shakes (WDS). The test compound was administered in an appropriate vehicle, such as hydroxypropyl-β-cyclodextrin (HP-β-CD), methocellulose, 10% Solutol, H2O or the like, by the appropriate route (e.g., i.p. or p.o.), 30-60 min before icilin. Icilin was then administered in PEG-400 or 10% solutol/H2O, at 1.0 or 3.0 mg/kg, i.p. and spontaneous “wet-dog” shakes were counted 10-20 min post-icilin.
Representative compounds of the present invention were tested at 10 mg/kg p.o. and 60 min pre-incilin, according to the procedure as described above. Results, as listed in Table 7 below, are presented as a percent inhibition of shakes, which was calculated as [1−(test compound WDS count/vehicle WDS count)]×100.

[2] abbreviates: HEK293 cells stably expressing canine TRPM8, icilin activation, 0.2 µM.
Setting [3] is: HEK293, 0.2 μM compound, HEK293 cells stably expressing canine TRPM8, icilin activation, read-out: % Inh @ 0.2 μM.
The mark [4] stands for this setting: HEK293 cells stably expressing canine TRPM8, read-out: IC50.

“And” between values parts separate entries of the source, which are not always exact repeats. Identical values can stand only once. Like-named read-outs stand apart in the source and are kept apart here.

T1 sequence (Q1A7N1 1-1104): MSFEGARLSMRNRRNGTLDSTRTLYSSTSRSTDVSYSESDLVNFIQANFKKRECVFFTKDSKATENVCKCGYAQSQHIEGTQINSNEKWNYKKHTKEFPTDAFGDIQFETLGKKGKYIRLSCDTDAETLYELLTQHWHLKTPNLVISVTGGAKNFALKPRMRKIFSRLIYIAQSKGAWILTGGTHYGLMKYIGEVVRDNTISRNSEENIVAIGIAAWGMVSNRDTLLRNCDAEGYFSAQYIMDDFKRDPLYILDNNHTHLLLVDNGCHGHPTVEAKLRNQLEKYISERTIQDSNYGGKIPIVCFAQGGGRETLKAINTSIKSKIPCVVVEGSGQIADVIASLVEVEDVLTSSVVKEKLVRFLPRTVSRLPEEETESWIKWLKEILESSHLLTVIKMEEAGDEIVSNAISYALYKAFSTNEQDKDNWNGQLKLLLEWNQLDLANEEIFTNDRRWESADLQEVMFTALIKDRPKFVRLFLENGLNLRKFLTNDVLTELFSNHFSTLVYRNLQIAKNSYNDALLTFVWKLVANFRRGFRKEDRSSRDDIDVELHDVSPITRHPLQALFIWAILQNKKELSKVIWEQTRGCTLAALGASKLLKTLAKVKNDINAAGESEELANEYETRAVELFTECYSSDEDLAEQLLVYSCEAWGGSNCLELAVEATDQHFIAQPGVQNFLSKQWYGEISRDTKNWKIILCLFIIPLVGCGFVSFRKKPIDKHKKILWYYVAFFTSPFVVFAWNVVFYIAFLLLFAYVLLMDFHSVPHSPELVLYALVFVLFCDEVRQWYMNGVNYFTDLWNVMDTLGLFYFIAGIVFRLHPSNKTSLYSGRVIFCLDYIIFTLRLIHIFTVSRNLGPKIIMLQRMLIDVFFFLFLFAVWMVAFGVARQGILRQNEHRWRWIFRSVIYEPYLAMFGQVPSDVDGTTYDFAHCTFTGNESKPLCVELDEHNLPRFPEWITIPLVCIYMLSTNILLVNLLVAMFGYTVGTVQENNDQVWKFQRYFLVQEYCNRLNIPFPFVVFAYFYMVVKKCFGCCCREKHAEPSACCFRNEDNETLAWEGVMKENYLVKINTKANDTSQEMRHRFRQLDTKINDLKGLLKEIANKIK

Turning to `Cn1c(N(Cc2ccc(OC(F)(F)F)cc2)S(=O)(=O)c2ccccc2)nc2ccccc21` [Compound #6], the “% Inh @ 0.2 μM” value at canine TRPM8 (setting [2]) came to 100%. Further, the inhibition at 0.2 µM on canine TRPM8 (setting [3]) came out at 101%. At canine TRPM8 (setting [4]), the concentration for half-maximal inhibition (IC50) (commonly the concentration that inhibits the measured activity by half) was 1 nM and 2 nM. The “% Inhibition of shakes” value in assay [1] is recorded as 20.2%.

Consider `Cn1c(N(Cc2ccc(F)c(C(F)(F)F)c2)S(=O)(=O)c2ccccc2)nc2ccccc21` [Compound #15, N-(4-Fluoro-3-trifluoromethyl-benzyl)-N-(1-methyl-1H-benzimidazol-2-yl)-benzenesulfonamide], for which, on canine TRPM8 (setting [2]), the “% Inh @ 0.2 μM” value is listed as 98%. Further, the inhibition at 0.2 µM at canine TRPM8 (setting [3]) was 102%. Further, the IC50 on canine TRPM8 (setting [4]) was 1 nM and 4 nM. For the same compound, the “% Inhibition of shakes” value in assay [1] was 27.7%.

Turning to `CCn1c(N(Cc2ccc(C(F)(F)F)cc2)S(=O)(=O)c2ccccc2)nc2cc(F)ccc21` [Compound #47, N-(1-Ethyl-5-fluoro-1H-benzimidazol-2-yl)-N-(4-trifluoromethyl-benzyl)-benzenesulfonamide], the inhibition at 0.2 µM on canine TRPM8 (HEK293, read-out: % Inh @ 0.2 μM) came out at 100%. For the same compound, it took 6 nM to reach half-maximal inhibition against canine TRPM8 (IC50, HEK293 cells stably expressing canine TRPM8) (IC50). In addition, the “% Inhibition of shakes” value in assay [1] is recorded as 36%.

In the case of `Cn1c(N(Cc2ccc(F)c(Cl)c2)S(=O)(=O)c2ccccc2)nc2ccccc21` [compound 20], the inhibition at 0.2 µM on canine TRPM8 (setting [3]) was found to be 101%. Besides, the IC50 at canine TRPM8 (setting [4]) was 1 nM. The “% Inhibition of shakes” value in assay [1] is on record as 32.6%.

For `Cn1c(N(Cc2ccc(C(F)(F)F)cc2)S(=O)(=O)c2ccc(Cl)cc2)nc2ccccc21` [compound 41], the inhibition at 0.2 µM on canine TRPM8 (setting [3]) is 102%. The IC50 at canine TRPM8 (setting [4]) is 9 nM.

On to `Cn1c(N(Cc2ccc(C(F)(F)F)cc2)S(=O)(=O)c2ccccc2)nc2cc(F)ccc21` [compound 43], for which, on canine TRPM8 (setting [3]), the inhibition at 0.2 µM was found to be 100%. Also, the IC50 on canine TRPM8 (setting [4]) was 4 nM.

On to `CCn1c(N(Cc2ccc(C(F)(F)F)c(F)c2)S(=O)(=O)c2ccccc2)nc2cc(F)ccc21` [compound 48], for which, at canine TRPM8 (setting [3]), the inhibition at 0.2 µM came out at 100%. Also, the half-maximal inhibitory concentration (IC50) at canine TRPM8 (setting [4]) was 7 nM.

As to `CC(C)Cn1c(N(Cc2ccc(OC(F)(F)F)cc2)S(=O)(=O)c2ccccc2)nc2ccccc21` [compound 49], at canine TRPM8 (setting [3]), the inhibition at 0.2 µM was 81%. Besides, at canine TRPM8 (setting [4]), the IC50 was determined as 48 nM.

As to `CC(C)Cn1c(N(Cc2ccc(C(F)(F)F)c(F)c2)S(=O)(=O)c2ccccc2)nc2ccccc21` [compound 50], on canine TRPM8 (setting [3]), the inhibition at 0.2 µM was found to be 82%. The IC50 at canine TRPM8 (setting [4]) amounted to 37 nM.

For the compound `O=S(=O)(c1ccccc1)N(Cc1ccc(C(F)(F)F)cc1)c1nc2ccccc2n1CC(F)(F)F` [compound 54], the “% Inh @ 0.2 μM” value on canine TRPM8 (HEK293 cells stably expressing canine TRPM8, icilin activation) is given as 85, 85%. Besides, the inhibition at 0.2 µM on canine TRPM8 (setting [3]) was 85%. Also, at canine TRPM8 (setting [4]), the concentration for half-maximal inhibition (IC50) was 15 nM and 75 nM. In assay [1], the “% Inhibition of shakes” value stood at 2.4%.

With `CC(C)n1c(N(Cc2ccc(C(F)(F)F)c(F)c2)S(=O)(=O)c2ccccc2)nc2cc(Cl)ccc21` [compound 56], the inhibition at 0.2 µM at canine TRPM8 (setting [3]) worked out at 96%. The IC50 on canine TRPM8 (setting [4]) is 24 nM.

As to `Cn1c(N(Cc2ccc(OC(F)(F)F)cc2)S(=O)(=O)c2ccccc2)nc2cc(F)ccc21` [compound 57], the inhibition at 0.2 µM on canine TRPM8 (setting [3]) turned out to be 99%. In addition, the IC50 on canine TRPM8 (setting [4]) worked out at 9 nM.

In the case of `Cn1c(N(Cc2ccc(C(F)(F)F)c(F)c2)S(=O)(=O)c2ccccc2)nc2cc(F)ccc21` [compound 58], the inhibition at 0.2 µM on canine TRPM8 (setting [3]) was determined as 99%. Also, the IC50 on canine TRPM8 (setting [4]) amounted to 6 nM.

In the case of `O=S(=O)(c1ccccc1)N(Cc1ccc(OC(F)(F)F)cc1)c1nc2ccccc2n1CC(F)(F)F` [compound 59], the inhibition at 0.2 µM at canine TRPM8 (setting [3]) came to 76%. Moreover, the IC50 at canine TRPM8 (setting [4]) was found to be 77 nM.

In the case of `CC(C)n1c(N(Cc2ccc(OC(F)(F)F)cc2)S(=O)(=O)c2ccccc2)nc2cc(Cl)ccc21` [compound 61], the inhibition at 0.2 µM at canine TRPM8 (setting [3]) is 96%. For the same compound, the IC50 at canine TRPM8 (setting [4]) was 47 nM.

For the compound `O=S(=O)(c1ccccc1)N(Cc1ccc(OC(F)(F)F)cc1)c1nc2cccc3c2n1CCC3` [compound 62], the inhibition at 0.2 µM at canine TRPM8 (setting [3]) stood at 100%. In addition, on canine TRPM8 (setting [4]), the IC50 is 19 nM.

`O=S(=O)(c1ccccc1)N(Cc1ccc(C(F)(F)F)c(F)c1)c1nc2cccc3c2n1CCC3` [compound 63]: on canine TRPM8 (setting [3]), the inhibition at 0.2 µM turned out to be 101%. Also, the IC50 on canine TRPM8 (setting [4]) amounted to 22 nM.

For `O=S(=O)(c1ccccc1)N(Cc1ccc(C(F)(F)F)cc1)c1nc2cccc3c2n1CCC3` [compound 65], the inhibition at 0.2 µM at canine TRPM8 (setting [3]) was 101%. Further, the IC50 on canine TRPM8 (setting [4]) was determined as 17 nM.

Consider `Cc1ccc2nc(N(Cc3ccc(OC(F)(F)F)cc3)S(=O)(=O)c3ccccc3)n(C)c2c1` [compound 66], for which, on canine TRPM8 (setting [3]), the inhibition at 0.2 µM was determined as 98%. Moreover, the IC50 at canine TRPM8 (setting [4]) worked out at 21 nM.

For `Cc1ccc2nc(N(Cc3ccc(C(F)(F)F)cc3)S(=O)(=O)c3ccccc3)n(C)c2c1` [compound 68], the inhibition at 0.2 µM at canine TRPM8 (setting [3]) was 99%. Moreover, the half-maximal inhibitory concentration (IC50) on canine TRPM8 (setting [4]) worked out at 24 nM.

With `O=S(=O)(c1ccccc1)N(Cc1ccc(OC(F)(F)F)cc1)c1nc2ccccc2n1CC1CC1` [compound 69], the inhibition at 0.2 µM at canine TRPM8 (setting [3]) was determined as 101%. Also, the IC50 on canine TRPM8 (setting [4]) amounted to 26 nM.

Regarding `O=S(=O)(c1ccccc1)N(Cc1ccc(C(F)(F)F)cc1)c1nc2ccccc2n1CC1CC1` [compound 70], the inhibition at 0.2 µM on canine TRPM8 (setting [3]) is 101%. On canine TRPM8 (setting [4]), the IC50 came out at 35 nM.

For the compound `Cc1cc2nc(N(Cc3ccc(OC(F)(F)F)cc3)S(=O)(=O)c3ccccc3)n(C)c2cc1C` [compound 74], the inhibition at 0.2 µM on canine TRPM8 (setting [3]) was 99%. The IC50 at canine TRPM8 (setting [4]) was 19 nM.

In the case of `Cc1cc2nc(N(Cc3ccc(C(F)(F)F)c(F)c3)S(=O)(=O)c3ccccc3)n(C)c2cc1C` [compound 75], the inhibition at 0.2 µM on canine TRPM8 (setting [3]) was 101%. In addition, the IC50 on canine TRPM8 (setting [4]) worked out at 28 nM.

On to `Cc1cccc2c1nc(N(Cc1ccc(C(F)(F)F)c(F)c1)S(=O)(=O)c1ccccc1)n2C` [compound 76], for which the inhibition at 0.2 µM on canine TRPM8 (setting [3]) came out at 101%. The IC50 at canine TRPM8 (setting [4]) worked out at 9.4 nM.
